One assay deals with skin cancer cells. As to conditions: skin cancer cells vs normal cells; cited from earlier work.
In a further assay the test system is HASMC cells. The assay can be described thus: Extracellular acidification rate (ECAR), SeaHorse XF analyzer. The format is cell-based, human. Particulars: hyperglycemic, hypoxic conditions. The source says:
(SeaHorse Biosciences Inc, North Billerica, Mass.).
In this experiment, the OCR and extracellular acidification rate (ECAR) in normal cells lines were obtained in the presence and absence of CoQ10 to determine baseline values. It was observed that in its native nutrient environment, the basal OCR rates in normal cells lines are different, and are usually a function of the physiological roles of the cells in the body.
In Table 128 the measured baseline ECAR values (mpH/min) in HASMC were higher compared to that of HDFa. Induction of hypoxic conditions caused an increase in ECAR most likely associated with intracellular hypoxia induced acidosis secondary to increased glycolysis.

Another assay deals with PC-3. The assay can be described thus: Nexin assay for apoptosis (flow cytometry). It is filed as cell-based. Particulars: 50 μM and 100 μM Q10, 24 hours. The source says: (§1) The 7AAD dye will enter into cells with permeabilized cell membranes; primarily those cells that are in late apoptosis. Annexin-V-PE is a dye that binds to Phosphotidyl serine, which is exposed on the outer surface of the plasma membrane in early apoptotic cells. The Nexin reagent thus can be used to differentiate between different populations of apoptotic cells in a flow cytometer.
In general terms: A flow cytometer gives signals particle by particle.

For a further assay, the system named is PaCa2. In words: Nexin assay for apoptosis (flow cytometry). The format is cell-based. As to conditions: 50 μM and 100 μM Q10, 24 hours.
Excerpt: as §1

Another assay concerns MCF-7. In words: Nexin assay for apoptosis (flow cytometry). It is filed as cell-based. As to conditions: 50 μM and 100 μM Q10, 24 hours.
Excerpt: as §1

In a further assay the test system is SK-MEL28. In words: Nexin assay for apoptosis (flow cytometry). It is filed as cell-based. Particulars: 50 μM and 100 μM Q10, 24 hours.
Excerpt: as §1

In assay [1] the test system is Pyruvate Dehydrogenase beta (PDH-E1). In words: Western blot, Pyruvate Dehydrogenase Beta levels. It is filed as cell-based, human. The protocol: The pyruvate kinase blots were stripped by incubating for 30 minutes with methanol, followed by two 10 minute washes with TBS-T, then 30 minutes of incubation with Stripping buffer at 50 deg C., and followed by two washes with 100 ml or more of TBS-T for 30′ each. The 2 blots were scanned in laser scanner to check for complete stripping. After making sure stripping of the antibody and the ECF reagent has worked, the blots were activated with methanol for 5 seconds, washed with water for 5 minutes, and TBST for 15 minutes. The blots are blocked for 1 hour with 5% blocking reagent in TBS-T at room temperature and then washed 3 times with TBS-T (1×-15′; 2×5′ each) and probed with the antibody for Pyruvate Dehydrogenase in 5% BSA (ABNOVA catalog # H00005162-M03) at 1:500 dilutions) overnight at 4 deg C. with shaking. After the overnight incubation with primary antibody for Pyruvate Dehydrogenase, the membranes were washed 3 times with TBS-T (1×-15′; 2×5′ each) and probed with the secondary antibody (antimouse; 1:10,000 dilution) for 1 h on the orbital tilting shaker at room temperature. […]
The levels of LDH and PDH were determined by probing the blots successively with primary antibodies for LDH and PDH, essentially as described above. […]
In general terms: Immunoblotting shows a protein as a band on a membrane.

The next assay has as its system Bcl2. In words: Bcl2 level after CoQ-10 in the presence of VEGF. Particulars: normal fibroblast, co-administration with VEGF. It is filed as cell-based.

Regarding `COC1=C(OC)C(=O)C(C/C=C(\C)CC/C=C(\C)CC/C=C(\C)CC/C=C(\C)CC/C=C(\C)CC/C=C(\C)CC/C=C(\C)CC/C=C(\C)CC/C=C(\C)CCC=C(C)C)=C(C)C1=O` [Q10, Coenzyme Q10], the rate of apoptosis entry with skin cancer cells is recorded as “increase the rate of apoptosis in a culture of skin cancer cells but not normal cells”. Moreover, the ECAR rates result in the assay on HASMC cells is recorded as “downward trend of ECAR rates”. The “early and late apoptotic population” value in the assay with PC-3 was “an increase in both early and late apoptotic population”. For the same compound, the “increase in both early and late apoptotic cells” value in the assay on PaCa2 is recorded as 5-10 % of gated cells. Moreover, the apoptotic population entry in the assay on MCF-7 and in the assay on SK-MEL28 was “an increase only in early apoptotic population” in each case. In assay [1] (HepG2, 5g glucose, 48 h, amount 50), the “Pyruvate Dehydrogenase Beta Normalized Volume (48 h)” value came out at 123. Further, in assay [1] (HepG2, 22G glucose, 24 h, amount 100), the “Pyruvate Dehydrogenase Beta Normalized Volume (24 h)” value is on record as 340. Further, the “levels of Bcl2” value in the assay with Bcl2 is reported as “no effect on the levels of Bcl2”.

The record behind these values is US10351915B2 (Berg LLC, priority 2009, dated 2019).
